Assay results taken from paper PMC12742849 (Protein & Cell, 2025).

Experiments:
[1] = molecular target: GST-tagged Francisella RibD (Francisella tularensis, UniProt A0Q460); conditions: substrate generated in situ from GTP by E. coli RibA; with and without PEP
[2] = molecular target: ALFA-tagged RibD (RibD-ALFA), F. novicida (Francisella novicida); test: pull-down

Chain of GST-tagged Francisella RibD (A0Q460 1-355): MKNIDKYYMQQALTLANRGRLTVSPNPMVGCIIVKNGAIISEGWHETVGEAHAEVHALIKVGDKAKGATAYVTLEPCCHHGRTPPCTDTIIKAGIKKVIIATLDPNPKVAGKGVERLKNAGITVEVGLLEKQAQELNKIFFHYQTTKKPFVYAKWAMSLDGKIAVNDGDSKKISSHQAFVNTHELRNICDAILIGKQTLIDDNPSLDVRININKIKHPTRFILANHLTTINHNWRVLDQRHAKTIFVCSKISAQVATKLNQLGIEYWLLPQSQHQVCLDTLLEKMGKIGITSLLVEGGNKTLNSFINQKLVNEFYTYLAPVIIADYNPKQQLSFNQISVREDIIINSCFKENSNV

Compound | fluorescence of the RibD reaction product (ex 408 nm, em 485 nm) [1] | stoichiometry N [2]
Nc1nc(N[C@@H]2O[C@H](COP(=O)(O)O)[C@@H](O)[C@H]2O)c(N)c(=O)[nH]1 [2,5-diamino-6-ribosyl-amino-4(3H) pyrimidinedione 5′-phosphate] | Results showed similar activity for both, with PEP having the same effect on each | –
FLAG-tagged enolase (enolase-FLAG), F. novicida (enzyme) | – | 1
